#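 Growth conditions: 96-well plates. Treatment: test compound, 48 hours, 5 concentrations. Analysis: linear interpolation between bracketing concentrations; unreached endpoints set to highest concentration. At the GI50, growth is halved. TGI is the concentration that stops growth completely.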
# Key:
# Experiment in all cases: DTP human tumour cell line panel, 48 h
# NCI-H522 lung = test system: NCI-H522 lung
# HCT-116 colon = test system: HCT-116 colon
# SN12C renal = test system: SN12C renal
# BT-549 breast = test system: BT-549 breast
# HCT-15 colon = test system: HCT-15 colon
# HOP-62 NSCLC = test system: HOP-62 NSCLC
# COLO 205 colon = test system: COLO 205 colon
# SF-539 CNS = test system: SF-539 CNS
# OVCAR-3 ovarian = test system: OVCAR-3 ovarian
# HT29 colon = test system: HT29 colon
# MDA-MB-468 breast = test system: MDA-MB-468 breast
# CCRF-CEM leukemia = test system: CCRF-CEM leukemia
# UO-31 renal = test system: UO-31 renal
# MDA-MB-435 = test system: MDA-MB-435
# NCI/ADR-RES ovarian = test system: NCI/ADR-RES ovarian
# K-562 leukemia = test system: K-562 leukemia
# UACC-62 melanoma = test system: UACC-62 melanoma
# NCI-H460 lung = test system: NCI-H460 lung
# HOP-92 NSCLC = test system: HOP-92 NSCLC
# HS 578T breast = test system: HS 578T breast
# A498 renal = test system: A498 renal
# 786-0 renal = test system: 786-0 renal
# LOX IMVI melanoma = test system: LOX IMVI melanoma
# MCF7 breast = test system: MCF7 breast
# IGROV1 ovarian = test system: IGROV1 ovarian
# SW-620 colon = test system: SW-620 colon
# SF-295 CNS = test system: SF-295 CNS
# PC-3 prostate = test system: PC-3 prostate
# M14 melanoma = test system: M14 melanoma
# MDA-MB-231 breast = test system: MDA-MB-231 breast
# NCI-H226 lung = test system: NCI-H226 lung
# MALME-3M melanoma = test system: MALME-3M melanoma
# OVCAR-8 ovarian = test system: OVCAR-8 ovarian
# T-47D breast = test system: T-47D breast
# ACHN renal = test system: ACHN renal
# SNB-19 CNS = test system: SNB-19 CNS
# TK-10 renal = test system: TK-10 renal
# KM12 colon = test system: KM12 colon
# CAKI-1 renal = test system: CAKI-1 renal
# SK-OV-3 ovarian = test system: SK-OV-3 ovarian
# SK-MEL-28 melanoma = test system: SK-MEL-28 melanoma
# DU-145 prostate = test system: DU-145 prostate
# UACC-257 melanoma = test system: UACC-257 melanoma
# EKVX NSCLC = test system: EKVX NSCLC
# NCI-H23 lung = test system: NCI-H23 lung
# A549 NSCLC = test system: A549 NSCLC
# OVCAR-4 ovarian = test system: OVCAR-4 ovarian
# HL-60(TB) leukemia = test system: HL-60(TB) leukemia
# RPMI-8226 leukemia = test system: RPMI-8226 leukemia
# SR leukemia = test system: SR leukemia
# SK-MEL-5 melanoma = test system: SK-MEL-5 melanoma
# U251 CNS = test system: U251 CNS
# MOLT-4 leukemia = test system: MOLT-4 leukemia
# SF-268 CNS = test system: SF-268 CNS
# OVCAR-5 ovarian = test system: OVCAR-5 ovarian
# RXF 393 renal = test system: RXF 393 renal
# HCC-2998 colon = test system: HCC-2998 colon
smiles,measurement,setting,value
Cc1ccc(-c2ccc(SCC(=O)Nc3ccc(Cl)c(C(F)(F)F)c3)nn2)cc1,GI50,NCI-H522 lung,0.528 µM
same,TGI,NCI-H522 lung,4 µM
same,GI50,HCT-116 colon,0.445 µM
same,TGI,HCT-116 colon,> 100 µM
same,GI50,SN12C renal,4.85 µM
same,TGI,SN12C renal,> 100 µM
same,GI50,BT-549 breast,0.829 µM
same,TGI,BT-549 breast,46.2 µM
same,GI50,HCT-15 colon,0.405 µM
same,TGI,HCT-15 colon,> 100 µM
same,GI50,HOP-62 NSCLC,1.23 µM
same,TGI,HOP-62 NSCLC,24.1 µM
same,GI50,COLO 205 colon,1.06 µM
same,TGI,COLO 205 colon,3.51 µM
same,GI50,SF-539 CNS,0.754 µM
same,TGI,SF-539 CNS,3.35 µM
same,GI50,OVCAR-3 ovarian,0.409 µM
same,TGI,OVCAR-3 ovarian,1.94 µM
same,GI50,HT29 colon,0.512 µM
same,TGI,HT29 colon,> 100 µM
same,GI50,MDA-MB-468 breast,0.371 µM
same,TGI,MDA-MB-468 breast,2.25 µM
same,GI50,CCRF-CEM leukemia,0.459 µM
same,TGI,CCRF-CEM leukemia,> 100 µM
same,GI50,UO-31 renal,3.16 µM
same,TGI,UO-31 renal,> 100 µM
same,GI50,MDA-MB-435,0.22 µM
same,TGI,MDA-MB-435,0.513 µM
same,GI50,NCI/ADR-RES ovarian,0.393 µM
same,TGI,NCI/ADR-RES ovarian,2.14 µM
same,GI50,K-562 leukemia,0.419 µM
same,TGI,K-562 leukemia,> 100 µM
same,GI50,UACC-62 melanoma,0.531 µM
same,TGI,UACC-62 melanoma,39.4 µM
same,GI50,NCI-H460 lung,3.22 µM
same,TGI,NCI-H460 lung,> 100 µM
same,GI50,HOP-92 NSCLC,2.95 µM
same,TGI,HOP-92 NSCLC,59.5 µM
same,GI50,HS 578T breast,1.05 µM
same,TGI,HS 578T breast,8.14 µM
same,GI50,A498 renal,3.75 µM
same,TGI,A498 renal,38 µM
same,GI50,786-0 renal,0.892 µM
same,TGI,786-0 renal,37.7 µM
same,GI50,LOX IMVI melanoma,2.48 µM
same,TGI,LOX IMVI melanoma,> 100 µM
same,GI50,MCF7 breast,0.563 µM
same,TGI,MCF7 breast,> 100 µM
same,GI50,IGROV1 ovarian,1.46 µM
same,TGI,IGROV1 ovarian,46.4 µM
same,GI50,SW-620 colon,0.393 µM
same,TGI,SW-620 colon,> 100 µM
same,GI50,SF-295 CNS,0.5 µM
same,TGI,SF-295 CNS,8.22 µM
same,GI50,PC-3 prostate,0.878 µM
same,TGI,PC-3 prostate,> 100 µM
same,GI50,M14 melanoma,0.538 µM
same,TGI,M14 melanoma,> 100 µM
same,GI50,MDA-MB-231 breast,1.15 µM
same,TGI,MDA-MB-231 breast,19.3 µM
same,GI50,NCI-H226 lung,8.36 µM
same,TGI,NCI-H226 lung,> 100 µM
same,GI50,MALME-3M melanoma,0.589 µM
same,TGI,MALME-3M melanoma,36.5 µM
same,GI50,OVCAR-8 ovarian,2.71 µM
same,TGI,OVCAR-8 ovarian,> 100 µM
same,GI50,T-47D breast,0.594 µM
same,TGI,T-47D breast,> 100 µM
same,GI50,ACHN renal,6.84 µM
same,TGI,ACHN renal,> 100 µM
same,GI50,SNB-19 CNS,3.21 µM
same,TGI,SNB-19 CNS,56.6 µM
same,GI50,TK-10 renal,12.7 µM
same,TGI,TK-10 renal,52.8 µM
same,GI50,KM12 colon,0.732 µM
same,TGI,KM12 colon,> 100 µM
same,GI50,CAKI-1 renal,1.72 µM
same,TGI,CAKI-1 renal,> 100 µM
same,GI50,SK-OV-3 ovarian,3.82 µM
same,TGI,SK-OV-3 ovarian,65.3 µM
same,GI50,SK-MEL-28 melanoma,5.77 µM
same,TGI,SK-MEL-28 melanoma,> 100 µM
same,GI50,DU-145 prostate,2.37 µM
same,TGI,DU-145 prostate,17.9 µM
same,GI50,UACC-257 melanoma,12.1 µM
same,TGI,UACC-257 melanoma,> 100 µM
same,GI50,EKVX NSCLC,2.93 µM
same,TGI,EKVX NSCLC,> 100 µM
same,GI50,NCI-H23 lung,2 µM
same,TGI,NCI-H23 lung,32.7 µM
same,GI50,A549 NSCLC,5.34 µM
same,TGI,A549 NSCLC,> 100 µM
same,GI50,OVCAR-4 ovarian,5.86 µM
same,TGI,OVCAR-4 ovarian,> 100 µM
same,GI50,HL-60(TB) leukemia,0.319 µM
same,TGI,HL-60(TB) leukemia,2.32 µM
same,GI50,RPMI-8226 leukemia,0.986 µM
same,TGI,RPMI-8226 leukemia,> 100 µM
same,GI50,SR leukemia,0.34 µM
same,TGI,SR leukemia,> 100 µM
same,GI50,SK-MEL-5 melanoma,0.435 µM
same,TGI,SK-MEL-5 melanoma,8.76 µM
same,GI50,U251 CNS,1.47 µM
same,TGI,U251 CNS,38.5 µM
same,GI50,MOLT-4 leukemia,0.578 µM
same,TGI,MOLT-4 leukemia,> 100 µM
same,GI50,SF-268 CNS,9.67 µM
same,TGI,SF-268 CNS,> 100 µM
same,GI50,OVCAR-5 ovarian,3.24 µM
same,TGI,OVCAR-5 ovarian,> 100 µM
same,GI50,RXF 393 renal,1.1 µM
same,TGI,RXF 393 renal,5.93 µM
same,GI50,HCC-2998 colon,1.29 µM
same,TGI,HCC-2998 colon,10.5 µM

# — PubChem BioAssay (NCI)
